Results on three compounds are retold here after ChEMBL document CHEMBL3639375, “Œ=-lactamase inhibitors” (2013).

The target in test [1] is Beta-lactamase (Pseudomonas aeruginosa, UniProt Q8RL90). Nature of the test: (§1) Spectrophotometric Assay: Enzyme activities were measured in the presence of the test inhibitor in spectrophotometric assay.
For test [2], the target named is Beta-lactamase (Klebsiella pneumoniae, UniProt Q93LQ9). The test is described as §1.
Chain of Beta-lactamase (Klebsiella pneumoniae, UniProt Q93LQ9) (Q93LQ9 whole entry): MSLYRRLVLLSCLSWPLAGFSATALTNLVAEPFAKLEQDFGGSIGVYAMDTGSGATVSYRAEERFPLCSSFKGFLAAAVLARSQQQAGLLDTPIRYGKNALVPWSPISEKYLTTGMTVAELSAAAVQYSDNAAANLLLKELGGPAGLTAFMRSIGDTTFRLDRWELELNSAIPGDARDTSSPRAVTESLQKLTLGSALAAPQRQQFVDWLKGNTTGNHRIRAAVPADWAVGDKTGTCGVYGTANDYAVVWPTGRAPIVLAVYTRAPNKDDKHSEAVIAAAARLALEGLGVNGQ

Chain of Beta-lactamase (Pseudomonas aeruginosa, UniProt Q8RL90) (Q8RL90 whole entry): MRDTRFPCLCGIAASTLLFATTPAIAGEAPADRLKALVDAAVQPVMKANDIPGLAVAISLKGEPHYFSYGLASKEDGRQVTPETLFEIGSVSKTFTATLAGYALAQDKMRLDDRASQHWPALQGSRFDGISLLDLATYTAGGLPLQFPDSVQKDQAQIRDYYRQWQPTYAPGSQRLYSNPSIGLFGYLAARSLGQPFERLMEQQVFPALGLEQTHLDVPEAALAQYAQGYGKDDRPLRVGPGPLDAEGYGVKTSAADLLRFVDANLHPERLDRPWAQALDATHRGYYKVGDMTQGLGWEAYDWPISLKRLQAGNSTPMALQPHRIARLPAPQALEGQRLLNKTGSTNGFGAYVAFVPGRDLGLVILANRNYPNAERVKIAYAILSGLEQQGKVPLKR

Regarding `O=C(Nc1ccncc1)[C@@H]1CCC2CN1C(=O)N2OS(=O)(=O)O` (stereo partly drawn), in test [1], the IC50 (as a rule, the point on the concentration scale where inhibition reaches its midpoint) was 6 nM. With `O=C(Nc1ccc2c(c1)CCNC2)[C@@H]1CCC2CN1C(=O)N2OS(=O)(=O)O` (stereo partly drawn), in test [2], the half-inhibitory concentration (IC50) was found to be 19 nM.

As for `O=C(NC1CCCNCC1)[C@@H]1CCC2CN1C(=O)N2OS(=O)(=O)O` (stereo partly drawn), the 50% inhibitory concentration (IC50) in test [1] amounted to 69 nM.
